The results in this text go back to article PMC12811659.

Experiment in data set [1]: not given
This is another data set of the same source.

Experiment in data set [2]: not given
The source holds these as a separate data set.

Regarding `CC[C@H](C)[C@H](NC(=O)Cn1nc(C)c(/N=N/c2ccccc2)c1C)C(=O)N[C@@H](CO)C(=O)N[C@@H](C)C(=O)O`, the trans-isomer fraction, native state was 85%. This molecule also had a trans-isomer fraction after 520 nm irradiation in data set [1] of 87%.
On to `CC[C@H](C)[C@H](NC(=O)Cn1nc(C)c(/N=N\c2ccccc2)c1C)C(=O)N[C@@H](CO)C(=O)N[C@@H](C)C(=O)O`, for which, in data set [2], the cis-isomer fraction after 365 nm irradiation was > 98%.
